In ChEMBL document CHEMBL1828496 (Eur J Med Chem, 2011):

Key:
[1] = target: T1, Amine oxidase [flavin-containing] A (Homo sapiens, UniProt P21397); assay: Inhibition of human recombinant MAO-A expressed in baculovirus infected BTI-TN-5B1-4 cells assessed as production of hydrogen peroxide from p-tyramine after 15 mins by microplate fluorescence assay
T1 sequence (P21397 whole entry): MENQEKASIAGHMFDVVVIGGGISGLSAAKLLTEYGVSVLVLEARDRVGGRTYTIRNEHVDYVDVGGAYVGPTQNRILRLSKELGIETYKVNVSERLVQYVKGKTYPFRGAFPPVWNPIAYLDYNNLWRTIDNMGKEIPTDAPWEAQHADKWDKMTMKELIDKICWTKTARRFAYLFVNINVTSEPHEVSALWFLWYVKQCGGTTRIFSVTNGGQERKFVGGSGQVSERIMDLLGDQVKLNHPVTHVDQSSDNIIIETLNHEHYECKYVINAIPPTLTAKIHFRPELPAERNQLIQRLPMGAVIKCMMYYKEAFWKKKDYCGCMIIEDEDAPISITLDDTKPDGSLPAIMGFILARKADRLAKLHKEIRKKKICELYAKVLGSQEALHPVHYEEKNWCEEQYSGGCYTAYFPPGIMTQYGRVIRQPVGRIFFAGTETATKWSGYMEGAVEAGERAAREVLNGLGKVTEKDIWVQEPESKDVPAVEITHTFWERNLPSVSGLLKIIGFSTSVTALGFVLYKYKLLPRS

[2] = target: T2, Amine oxidase [flavin-containing] B (Homo sapiens, UniProt P27338); assay: biochemical; type: cell-based, BTI-TN-5B1-4
T2 sequence (P27338 whole entry): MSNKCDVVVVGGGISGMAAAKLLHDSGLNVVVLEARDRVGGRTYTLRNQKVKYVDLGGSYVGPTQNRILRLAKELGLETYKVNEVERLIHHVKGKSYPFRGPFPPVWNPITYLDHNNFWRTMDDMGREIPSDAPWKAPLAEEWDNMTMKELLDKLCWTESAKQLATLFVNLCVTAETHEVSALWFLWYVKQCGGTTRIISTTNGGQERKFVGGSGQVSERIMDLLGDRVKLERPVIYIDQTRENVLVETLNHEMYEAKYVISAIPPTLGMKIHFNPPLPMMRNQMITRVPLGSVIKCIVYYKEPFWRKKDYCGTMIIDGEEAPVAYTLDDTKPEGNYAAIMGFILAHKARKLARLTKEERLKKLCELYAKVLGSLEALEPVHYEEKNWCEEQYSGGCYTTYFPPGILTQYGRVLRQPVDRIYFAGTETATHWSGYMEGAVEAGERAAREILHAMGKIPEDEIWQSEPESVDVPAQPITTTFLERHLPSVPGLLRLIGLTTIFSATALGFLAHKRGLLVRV
Description: Inhibition of human recombinant MAO-B expressed in baculovirus infected BTI-TN-5B1-4 cells assessed as production of hydrogen peroxide from p-tyramine after 15 mins by microplate fluorescence assay

Homo sapiens = species on record: Homo sapiens; assay: Selectivity ratio of IC50 for human recombinant MAO-A to IC50 for human recombinant MAO-B
[3] = target: T2, Amine oxidase [flavin-containing] B; assay: Inhibition of human recombinant MAO-B expressed in baculovirus infected BTI-TN-5B1-4 cells assessed as production of hydrogen peroxide from p-tyramine at 100 uM after 15 mins by microplate fluorescence assay; conditions: for inhibition (INH): human, bti-tn-5b1-4, 0.25 h, 100 µM; for inhibition at 100 µM: BTI-TN-5B1-4, human, 0.25 h
[4] = target: T1, Amine oxidase [flavin-containing] A; assay: Inhibition of human recombinant MAO-A expressed in baculovirus infected BTI-TN-5B1-4 cells assessed as production of hydrogen peroxide from p-tyramine at 100 uM after 15 mins by microplate fluorescence assay; conditions: for inhibition (INH): human, bti-tn-5b1-4, 0.25 h, 100 µM; for inhibition at 100 µM: BTI-TN-5B1-4, human, 0.25 h
[5] = Hydrolytic stability of the compound in water after 1 to 24 hrs by NMR spectroscopic analysis; type: physicochemical
[6] = Hydrolytic stability of the compound in dimethyl sulfoxide after 1 to 24 hrs by NMR spectroscopic analysis; type: physicochemical
[7] = Hydrolytic stability of the compound in phosphate buffer at pH 7.4 after 1 to 24 hrs by NMR spectroscopic analysis; type: physicochemical
[8] = Hydrolytic stability of the compound in acetonitrile after 1 to 24 hrs by NMR spectroscopic analysis; type: physicochemical

Structure (SMILES) | IC50 [2] [µM] | Ratio IC50 (Homo sapiens) | inhibition (INH) [4] | other results
O=C(c1ccccc1)c1cc2cc(O)ccc2oc1=O | 18 | 2.9 |  | IC50 [1]: 51.7 µM
CC(=O)c1cc2cc(Cl)cc(Br)c2oc1=O | 0.14 | 394 |  | IC50 [1]: 55.2 µM
CCOC(=O)c1cc2ccc(OCc3ccccc3)cc2oc1=O | 0.00701 | > 14300 | Not Active | Stability [5]: Stable; Stability [6]: Stable; Stability [7]: Stable; Stability [8]: Stable
CC(=O)c1cc2ccc(O)cc2oc1=O |  |  | Not Active | inhibition (INH) [3]: Not Active
CCN(CC)c1ccc2cc(C(=O)c3ccccc3)c(=O)oc2c1 | 23.8 | > 4.2 | Not Active | 
CC(C)(C)c1ccc(COc2ccc3cc(C(=O)O)c(=O)oc3c2)cc1 |  |  | Not Active | inhibition (INH) [3]: Not Active
CCOC(=O)c1cc2cc(Br)cc(Br)c2oc1=O |  |  | Not Active | inhibition at 100 µM [3]: 40%
CCOC(=O)c1cc2ccc(OCc3cccc(Cl)c3)cc2oc1=O | 0.0612 | > 1630 | Not Active | Stability [5]: Stable; Stability [6]: Stable; Stability [7]: Stable; Stability [8]: Stable
CCOC(=O)c1cc2ccc(O)cc2oc1=O |  |  | Not Active | inhibition (INH) [3]: Not Active
O=C(c1ccccc1)c1cc2cc(Br)ccc2oc1=O |  |  | Not Active | inhibition (INH) [3]: Not Active
CC(=O)c1cc2cc(Br)cc(Br)c2oc1=O | 0.2 | > 500 | Not Active | 
O=C(c1ccccc1)c1cc2ccccc2oc1=O |  |  | Not Active | inhibition (INH) [3]: Not Active
O=C(c1ccccc1)c1cc2ccc(O)cc2oc1=O |  |  | Not Active | inhibition (INH) [3]: Not Active
O=C(O)c1cc2cc(I)cc(I)c2oc1=O | 17.8 | > 5.6 | Not Active | 
CCOC(=O)c1cc2cc(O)ccc2oc1=O | 10.1 | 4.9 |  | IC50 [1]: 49.1 µM
O=C(O)c1cc2cccc(O)c2oc1=O |  | < 0.6 |  | IC50 [1]: 59.6 µM; inhibition at 100 µM [3]: 40%
COc1ccc2cc(C(=O)c3ccccc3)c(=O)oc2c1 |  |  | Not Active | inhibition at 100 µM [3]: 40%
CCOC(=O)c1cc2cccc(O)c2oc1=O | 14.8 | 2.7 |  | IC50 [1]: 40.5 µM
O=C(O)c1cc2cc(O)ccc2oc1=O |  | < 0.4 |  | IC50 [1]: 40.2 µM; inhibition at 100 µM [3]: 40%
CCOC(=O)c1cc2ccc(OC)cc2oc1=O | 23.5 | > 4.3 |  | inhibition at 100 µM [4]: 40%
O=C(O)c1cc2cc(Br)cc(Br)c2oc1=O |  |  | Not Active | inhibition (INH) [3]: Not Active
O=C(c1ccccc1)c1cc2c(ccc3ccccc32)oc1=O |  |  | Not Active | inhibition (INH) [3]: Not Active
CC(=O)c1cc2cc(C)ccc2oc1=O |  |  | Not Active | inhibition at 100 µM [3]: 40%
Cc1ccc2oc(=O)c(C(=O)c3ccccc3)cc2c1 |  |  | Not Active | inhibition at 100 µM [3]: 40%
CC(=O)c1cc2cc(Br)ccc2oc1=O |  | < 0.52 |  | IC50 [1]: 51.6 µM; inhibition at 100 µM [3]: 40%
CC(=O)c1cc2cc(I)cc(I)c2oc1=O |  |  | Not Active | inhibition (INH) [3]: Not Active
CC(=O)c1cc2c(ccc3ccccc32)oc1=O | 2.01 | > 50 |  | inhibition at 100 µM [4]: 40%
O=C(c1ccccc1)c1cc2cc(I)cc(I)c2oc1=O |  |  | Not Active | inhibition (INH) [3]: Not Active

More lines, main results first:

IC50 [2] [µM] | Ratio IC50 (Homo sapiens) | inhibition (INH) [4] | Structure (SMILES) | other results
 | < 0.39 |  | O=C(NNc1ccccc1[N+](=O)[O-])c1cc2ccccc2oc1=O | IC50 [1]: 39.6 µM; inhibition (INH) [3]: Not Active
8.62 | > 11.6 | Not Active | O=C(O)c1cc2ccc(OC3CCCCCC3)cc2oc1=O | 
 | < 0.58 |  | Cc1ccc(NNC(=O)c2cc3ccccc3oc2=O)cc1 | IC50 [1]: 58.4 µM; inhibition (INH) [3]: Not Active
21.6 | > 4.6 | Not Active | CCOC(=O)c1cc2cc(OC)ccc2oc1=O | Stability [5]: Stable; Stability [6]: Stable; Stability [7]: Stable; Stability [8]: Stable
1.19 | 40.4 |  | O=C(NNc1ccc(Cl)cc1)c1cc2ccccc2oc1=O | IC50 [1]: 48 µM
27.1 | 1.5 |  | O=C(c1ccccc1)c1cc2cccc(O)c2oc1=O | IC50 [1]: 40.5 µM
0.00322 | > 31100 | Not Active | NNC(=O)c1cc2ccccc2oc1=O | Stability [5]: Stable; Stability [6]: Stable; Stability [7]: Stable; Stability [8]: Stable
 |  | Not Active | O=C(c1ccccc1)c1cc2cc(Cl)ccc2oc1=O | inhibition (INH) [3]: Not Active
 |  | Not Active | COc1ccc2oc(=O)c(C(=O)O)cc2c1 | inhibition (INH) [3]: Not Active
 |  | Not Active | O=C(O)c1cc2cc(Cl)cc(Br)c2oc1=O | inhibition (INH) [3]: Not Active
64.2 | > 1.6 |  | CC(=O)c1cc2cc(O)ccc2oc1=O | inhibition at 100 µM [4]: 40%
 |  | Not Active | COc1ccc2cc(C(=O)O)c(=O)oc2c1 | inhibition at 100 µM [3]: 40%
56.1 | 1.08 |  | O=C(NNc1ccc([N+](=O)[O-])cc1[N+](=O)[O-])c1cc2ccccc2oc1=O | IC50 [1]: 60.5 µM
3.75 | > 27 | Not Active | CCOC(=O)c1cc2ccc(OCc3ccc(C(C)(C)C)cc3)cc2oc1=O | Stability [5]: Stable; Stability [6]: Stable; Stability [7]: Stable; Stability [8]: Stable
14.5 | > 6.9 | Not Active | CC(=O)c1cc2ccccc2oc1=O [3-ACETYLCOUMARIN] | 
0.41 | > 244 | Not Active | O=C(O)c1cc2ccc(OCc3ccc(Cl)c(Cl)c3)cc2oc1=O | 
15.4 | > 6.5 |  | COc1ccc2cc(C(C)=O)c(=O)oc2c1 | inhibition at 100 µM [4]: 40%
0.00947 | > 10600 | Not Active | CCOC(=O)c1cc2ccc(OCc3ccc(Cl)c(Cl)c3)cc2oc1=O | Stability [5]: Stable; Stability [6]: Stable; Stability [7]: Stable; Stability [8]: Stable
17.5 | > 5.7 | Not Active | CCOC(=O)c1cc2cc(Cl)cc(Br)c2oc1=O | 
 |  | Not Active | O=C(c1ccccc1)c1cc2cc(Cl)cc(Br)c2oc1=O | inhibition at 100 µM [3]: 40%
18.1 | > 5.5 | Not Active | CCN(CC)c1ccc2cc(C(C)=O)c(=O)oc2c1 | 
1.8 | > 55 | Not Active | O=C(O)c1cc2ccc(OCc3cccc(Cl)c3)cc2oc1=O | 
45.5 | > 2.2 | Not Active | CCOC(=O)c1cc2ccc(N(CC)CC)cc2oc1=O | 
42.1 | 0.93 |  | CC(=O)c1cc2cccc(O)c2oc1=O | IC50 [1]: 39.4 µM
 |  | Not Active | O=C(c1ccccc1)c1cc2cc(Br)cc(Br)c2oc1=O | inhibition at 100 µM [3]: 40%
17.7 | > 5.6 | Not Active | CC(=O)c1cc2cc(Cl)ccc2oc1=O | 
